From US10159653B2, “Methods and compositions for increasing energy expenditure using cinnamaldehyde” (NESTEC S.A., priority 2013, dated 2018)

Assays:
[1] = Ludy et al. 2011; cited from earlier work
Human subjects [2] = assay: Comparative taste testing; format: in vivo; conditions: 4.8 ppm capsaicin or 350 ppm cinnamaldehyde
Method: Human subjects were administered a composition comprising 4.8 ppm capsaicin or 350 ppm cinnamaldehyde. […] 87.9% of the participants judged capsaicin intense to very intense, compared to only 20.5% for cinnamaldehyde. To achieve a similar effect on fat oxidation of capsaicin and cinnamaldehyde, the dose of capsaicin is about 1.5 times less than the maximum that can be used as a flavor (7 ppm according to Fenaroli's Handbook), and the dose of cinnamaldehyde is about 17.5 times less than the maximum that can be used as a flavor (6191.0 ppm according to Fenaroli's Handbook).

Human subjects [3] = assay: Nose temperature after ingestion; format: in vivo; conditions: fifteen minutes following ingestion
Method: The nose temperature of the subjects was analyzed over the fifteen minutes following ingestion of the various compounds.

TRPA1 [4] = conditions: read-out: EC50 of TRPA1 activation; cited from earlier work
TRPM8 = TRPM8 (Homo sapiens, UniProt Q7Z2W7); conditions: cited from earlier work
TRPA1 [5] = biological target: T1, TRPA1 (Mus musculus, UniProt Q8BLA8); assay: Pre-clinical study, single dose: gastric emptying and short term food intake; format: in vivo; conditions: single dose 250 mg/kg bw
T1 construct: endogenous in cells; host or cells: living animals of the pre-clinical study (probably mice)

TRPV1 = TRPV1 (Homo sapiens, UniProt Q8NER1); conditions: cited from earlier work
Human subjects [6] = assay: Chin temperature after ingestion (sympathetic nervous system activity); format: in vivo
Method: The chin temperature of the subjects was measured over the eighty minutes following ingestion of the various compounds. […] The increased sympathetic activity identified by measuring the facial temperature (increased blood flow on the chin) might explain the increased energy expenditure measured by indirect calorimetry.

obese mice = assay: Pre-clinical study, chronic ingestion in food; format: in vivo; conditions: 0.2% in food
Method: The findings of the inventors were especially surprising in that a low dose (1.25 mg/kg body weight per day) of cinnamaldehyde at a flavoring range can provide an effect after a single ingestion. In a pre-clinical study by the inventors, the dose of cinnamaldehyde was about 250 mg/kg body weight per day, with chronic ingestion (effect on body weight gain and insulin sensitivity).

Human subjects [7] = assay: Energy expenditure after ingestion (indirect calorimetry); format: in vivo
Method: Human subjects were administered placebo, a cooling flavor, capsaicin or cinnamaldehyde. The energy expenditure was measured over the eighty minutes following ingestion. […] The increased sympathetic activity identified by measuring the facial temperature (increased blood flow on the chin) might explain the increased energy expenditure measured by indirect calorimetry.

Human subjects [8] = assay: Postprandial fat oxidation after ingestion; format: in vivo
Method: The postprandial fat oxidation was measured over the 90 minutes following ingestion of the various compounds.

[9] = flavoring level of cinnamaldehyde judged significantly less intense than capsaicin

T1 sequence (Q8BLA8 whole entry): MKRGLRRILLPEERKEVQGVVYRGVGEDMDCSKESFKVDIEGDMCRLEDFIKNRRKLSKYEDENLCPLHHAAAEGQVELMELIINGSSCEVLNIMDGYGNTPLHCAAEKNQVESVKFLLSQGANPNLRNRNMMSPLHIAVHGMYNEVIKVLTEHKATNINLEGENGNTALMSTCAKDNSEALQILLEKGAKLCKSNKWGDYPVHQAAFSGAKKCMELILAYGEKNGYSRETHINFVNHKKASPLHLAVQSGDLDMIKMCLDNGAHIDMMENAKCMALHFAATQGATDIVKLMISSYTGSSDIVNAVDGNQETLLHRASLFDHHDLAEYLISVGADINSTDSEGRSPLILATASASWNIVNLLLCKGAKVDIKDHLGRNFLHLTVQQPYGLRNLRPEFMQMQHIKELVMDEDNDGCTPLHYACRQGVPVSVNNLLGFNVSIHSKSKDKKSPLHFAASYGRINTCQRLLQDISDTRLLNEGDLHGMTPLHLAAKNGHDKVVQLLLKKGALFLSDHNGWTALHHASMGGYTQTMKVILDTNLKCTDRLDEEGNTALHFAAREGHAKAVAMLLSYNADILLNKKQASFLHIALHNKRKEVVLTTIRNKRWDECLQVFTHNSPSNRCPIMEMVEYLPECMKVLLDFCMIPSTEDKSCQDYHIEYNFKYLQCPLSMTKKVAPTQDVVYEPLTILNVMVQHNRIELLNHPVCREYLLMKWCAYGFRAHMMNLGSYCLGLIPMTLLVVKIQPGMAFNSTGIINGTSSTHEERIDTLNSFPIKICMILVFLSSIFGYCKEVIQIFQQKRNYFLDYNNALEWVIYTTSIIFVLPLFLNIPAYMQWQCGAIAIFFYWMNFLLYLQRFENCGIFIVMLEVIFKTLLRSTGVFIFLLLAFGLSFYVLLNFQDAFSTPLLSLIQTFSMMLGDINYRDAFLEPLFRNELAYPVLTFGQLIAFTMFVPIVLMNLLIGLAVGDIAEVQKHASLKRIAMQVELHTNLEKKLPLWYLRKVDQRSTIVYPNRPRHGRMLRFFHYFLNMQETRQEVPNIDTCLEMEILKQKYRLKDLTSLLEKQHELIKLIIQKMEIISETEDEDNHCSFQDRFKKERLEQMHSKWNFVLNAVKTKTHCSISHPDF
Chain of TRPV1 (Q8NER1 whole entry, species assumed): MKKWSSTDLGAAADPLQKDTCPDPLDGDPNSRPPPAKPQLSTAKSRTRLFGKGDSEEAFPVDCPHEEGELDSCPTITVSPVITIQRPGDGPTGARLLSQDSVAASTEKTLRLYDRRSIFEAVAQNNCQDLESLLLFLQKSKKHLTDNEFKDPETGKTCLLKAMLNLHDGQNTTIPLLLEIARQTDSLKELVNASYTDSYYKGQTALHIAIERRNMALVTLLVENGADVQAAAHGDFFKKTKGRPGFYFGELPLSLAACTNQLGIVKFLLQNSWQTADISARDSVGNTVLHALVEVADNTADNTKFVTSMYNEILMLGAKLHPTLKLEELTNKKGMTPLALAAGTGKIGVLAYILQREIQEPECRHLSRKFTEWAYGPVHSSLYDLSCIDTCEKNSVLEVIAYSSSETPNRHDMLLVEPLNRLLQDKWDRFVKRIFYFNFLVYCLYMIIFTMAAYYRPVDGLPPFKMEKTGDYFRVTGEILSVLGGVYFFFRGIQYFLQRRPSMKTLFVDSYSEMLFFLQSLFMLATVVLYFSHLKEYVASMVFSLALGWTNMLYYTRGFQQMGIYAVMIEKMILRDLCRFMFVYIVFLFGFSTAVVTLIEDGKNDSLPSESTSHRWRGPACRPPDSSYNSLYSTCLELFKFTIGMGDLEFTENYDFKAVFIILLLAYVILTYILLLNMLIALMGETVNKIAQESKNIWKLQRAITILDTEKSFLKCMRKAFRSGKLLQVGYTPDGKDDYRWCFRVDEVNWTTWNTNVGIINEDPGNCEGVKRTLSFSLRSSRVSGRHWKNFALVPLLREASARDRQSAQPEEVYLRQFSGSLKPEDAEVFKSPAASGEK
Chain of TRPM8 (Q7Z2W7 whole entry, species assumed): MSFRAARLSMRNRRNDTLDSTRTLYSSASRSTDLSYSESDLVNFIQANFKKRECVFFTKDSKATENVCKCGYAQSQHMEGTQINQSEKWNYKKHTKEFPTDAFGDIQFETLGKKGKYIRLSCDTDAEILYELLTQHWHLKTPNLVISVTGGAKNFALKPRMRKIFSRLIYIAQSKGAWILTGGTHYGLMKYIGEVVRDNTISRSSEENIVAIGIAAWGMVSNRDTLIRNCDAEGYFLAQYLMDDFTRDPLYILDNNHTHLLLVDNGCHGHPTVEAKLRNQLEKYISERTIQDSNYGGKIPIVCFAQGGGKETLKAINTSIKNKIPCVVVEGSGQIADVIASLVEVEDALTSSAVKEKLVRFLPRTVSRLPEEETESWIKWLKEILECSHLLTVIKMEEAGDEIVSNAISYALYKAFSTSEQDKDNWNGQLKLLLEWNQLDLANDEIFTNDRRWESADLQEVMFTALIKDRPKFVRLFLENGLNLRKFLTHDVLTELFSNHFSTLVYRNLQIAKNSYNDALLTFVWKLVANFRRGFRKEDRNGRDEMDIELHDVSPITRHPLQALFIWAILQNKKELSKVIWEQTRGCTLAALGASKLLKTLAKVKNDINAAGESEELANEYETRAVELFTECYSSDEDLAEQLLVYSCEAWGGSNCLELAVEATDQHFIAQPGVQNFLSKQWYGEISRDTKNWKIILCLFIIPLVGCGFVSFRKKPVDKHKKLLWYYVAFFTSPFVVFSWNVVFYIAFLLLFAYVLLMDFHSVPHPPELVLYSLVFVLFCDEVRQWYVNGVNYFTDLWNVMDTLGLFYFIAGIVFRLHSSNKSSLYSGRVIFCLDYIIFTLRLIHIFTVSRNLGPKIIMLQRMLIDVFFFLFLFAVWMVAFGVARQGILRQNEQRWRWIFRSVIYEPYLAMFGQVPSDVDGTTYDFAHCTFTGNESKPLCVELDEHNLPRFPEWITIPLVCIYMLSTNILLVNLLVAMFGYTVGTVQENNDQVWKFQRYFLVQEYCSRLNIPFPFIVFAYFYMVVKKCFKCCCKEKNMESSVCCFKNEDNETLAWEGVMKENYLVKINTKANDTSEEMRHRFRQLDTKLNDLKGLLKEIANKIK

SMILES	efficient dose for increasing energy expenditure and fat oxidation [1] [mg]	participants who judged the taste intense to very intense (Human subjects [2]) [%]	nose temperature (Human subjects [3])	EC50 (TRPA1 [4]) [µM]	activation of TRPM8 (TRPM8)	short term food intake (TRPA1 [5])	gastric emptying (TRPA1 [5]; through TRPA1 activation)	activation of TRPV1 (TRPV1)	impact on sympathetic nervous system activity compared to capsaicin (Human subjects [6]; [9])	chin temperature relative to baseline (Human subjects [6]; human subjects, eighty minutes following ingestion)	lean mass gain (obese mice)	body weight gain (obese mice; about 250 mg/kg bw/day)	food intake (obese mice; about 250 mg/kg bw/day)	insulin sensitivity (obese mice; about 250 mg/kg bw/day)	fat mass gain (obese mice; p 0.06)	impact on energy expenditure compared to capsaicin (Human subjects [7]; [9])	energy expenditure compared to placebo (Human subjects [7]; human subjects, eighty minutes following ingestion, time course and AUC)	effect on fat oxidation compared to capsaicin (Human subjects [8]; [9])	postprandial fat oxidation compared to placebo (Human subjects [8]; human subjects, 90 minutes following ingestion, time course and AUC)
COc1cc(CNC(=O)CCCC/C=C/C(C)C)ccc1O [capsaicin]	≥ 20	87.9	increase nose temperatures																
O=CC=Cc1ccccc1 [cinnamaldehyde]			increase nose temperatures	~60	not	reduced short term food intake	delayed gastric emptying	not	significantly higher impact	increases chin temperature for a prolonged time	no effect	reduces body weight gain	without affecting their food intake	improves their insulin sensitivity	tendency to decrease	significantly higher impact	increased	equivalent effect	maintained at higher levels
